What was measured:
[1] = target: Recombinant RIPK2 protein (Homo sapiens, UniProt O43353); assay: Receptor Interacting Protein Kinase 2 (RIPK2) enzyme assay (ADP-Glo); format: biochemical; conditions: 2 h at room temperature
Excerpt: Receptor Interacting Protein Kinase 2 (RIPK2) Enzyme Assay
Inhibition, %=(1−(test signal/maximal signal))*100.

NOD2 cellular signaling = assay: NOD2 signaling assay in HEK-Blue cells (NFkB-SEAP reporter, L18-MDP stimulated); format: cell-based; conditions: HEK-Blue cells expressing human NOD2, L18-MDP stimulation, 8 h; NI = no inhibition observed; read-out: EC50 HEK Blue RIPK2
Method: HEK-Blue cells expressing human NOD2 and NFkB-SAEP reporter (Invivogen) are seeded into 96 well clear plates at 7.5×10^3 cells per well in 100 μL of DMEM media supplemented with 10% FBS and 1% antibiotic-antimycotic mix. Cells are allowed to attach for 48 h in 5% CO2 tissue culture incubator at 37° C. On the morning of the experiment, media in the wells is replaced with 100 μL of HEK-Blue detection media (Invivogen). Cells are treated with the inhibitors, diluted in DMSO (0.5 μL per well) for 15 min in 5% CO2 tissue culture incubator at 37° C. After that, cells are stimulated by the addition of 1 ng/well L18-MDP (Invivogen). Cells are incubated in 5% CO2 tissue culture incubator at 37° C. for 8 h and absorbance, corresponding to the SEAP in the media, is determined in Wallac3V plate reader (Perkin Elmer). Inhibition, %=(1−((sample signal-unstimulated and DMSO treated cells)/(L18-MDP stimulated and DMSO treated cells—unstimulated and DMSO treated cells)))*100.

human ALK2 = target: T1, human ALK2 (Homo sapiens, UniProt Q04771); assay: Activin-Like Kinase 2 (ALK2) enzyme assay (33P-casein); format: biochemical; conditions: casein 1 mg/mL, 30 min; NI = no inhibition observed
T1 sequence (Q04771 21-509): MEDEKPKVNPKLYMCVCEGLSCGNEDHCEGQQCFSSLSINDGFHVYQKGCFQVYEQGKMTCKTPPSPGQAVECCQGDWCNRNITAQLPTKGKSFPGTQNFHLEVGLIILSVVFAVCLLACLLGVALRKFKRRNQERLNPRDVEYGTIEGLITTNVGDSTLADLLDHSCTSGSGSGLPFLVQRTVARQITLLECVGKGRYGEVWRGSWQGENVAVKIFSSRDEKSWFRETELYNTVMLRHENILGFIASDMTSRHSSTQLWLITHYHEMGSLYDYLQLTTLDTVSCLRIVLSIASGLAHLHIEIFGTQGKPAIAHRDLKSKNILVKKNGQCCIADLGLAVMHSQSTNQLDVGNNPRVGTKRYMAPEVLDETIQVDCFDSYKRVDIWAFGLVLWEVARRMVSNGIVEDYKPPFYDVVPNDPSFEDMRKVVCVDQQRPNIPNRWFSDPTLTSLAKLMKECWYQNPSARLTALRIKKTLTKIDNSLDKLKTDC
Method: Activin-Like Kinase 2 (ALK2) Enzyme Assay
Enzyme inhibitory activity was evaluated in a standard kinase enzyme assay by incubating human ALK2 with the protein substrate casein (1 mg/mL) and γ-^33ATP (10 µM) in the presence of various concentrations of test compounds (10 nM-100 μM). After 30 min the amount of ^33P-casein was determined.

Sequence of Recombinant RIPK2 protein (O43353 whole entry): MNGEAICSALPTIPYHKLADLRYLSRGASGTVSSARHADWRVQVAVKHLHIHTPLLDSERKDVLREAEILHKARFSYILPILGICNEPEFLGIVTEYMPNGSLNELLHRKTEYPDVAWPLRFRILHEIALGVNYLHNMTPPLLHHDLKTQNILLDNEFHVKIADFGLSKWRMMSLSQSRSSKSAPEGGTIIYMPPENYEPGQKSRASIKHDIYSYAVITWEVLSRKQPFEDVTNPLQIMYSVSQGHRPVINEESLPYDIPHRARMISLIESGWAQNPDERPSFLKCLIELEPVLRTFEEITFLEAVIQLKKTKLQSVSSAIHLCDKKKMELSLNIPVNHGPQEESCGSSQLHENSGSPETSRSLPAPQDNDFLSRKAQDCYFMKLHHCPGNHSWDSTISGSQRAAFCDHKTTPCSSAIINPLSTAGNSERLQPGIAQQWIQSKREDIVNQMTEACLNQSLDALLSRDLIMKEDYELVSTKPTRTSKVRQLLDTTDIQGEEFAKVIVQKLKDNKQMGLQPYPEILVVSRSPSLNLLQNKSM

| IC50 [1] [nM] | EC50 (NOD2 cellular signaling) [nM] | IC50 (human ALK2) [nM] | Structure (SMILES) |
| --- | --- | --- | --- |
| 22.1 | 168 | 326 | CCN(CC)CCOc1ccc(Nc2ncc3cc(-c4ccccc4Cl)ccc3n2)cc1 [UH15PN1, 6-(2-chlorophenyl)-N-(4-(2-(diethylamino)ethoxy)phenyl)quinazolin-2-amine] |
| 30.2 | 353 | > 100000 | CS(=O)(=O)c1cccc(Nc2ncc3cc(-c4ccccc4Cl)ccc3n2)c1 [UH15PN2, 6-(2-chlorophenyl)-N-(3-(methylsulfonyl)phenyl)quinazolin-2-amine] |
| 29.6 | – | 8420 | CS(=O)(=O)c1cccc(Nc2ncc3cc(-c4ccc(O)cc4)ccc3n2)c1 [UH15PN3, 4-(2-((3-(methylsulfonyl)phenyl)amino)quinazolin-6-yl)phenol] |
| 41.5 | 1960 | – | CS(=O)(=O)c1cccc(Nc2ncc3cc(-c4ccccn4)ccc3n2)c1 [UH15PN5, N-(3-(methylsulfonyl)phenyl)-6-(pyridin-2-yl)quinazolin-2-amine] |
| 25 | 450 | – | CS(=O)(=O)c1cccc(Nc2ncc3cc(-c4cccnc4)ccc3n2)c1 [UH15PN6, N-(3-(methylsulfonyl)phenyl)-6-(pyridin-3-yl)quinazolin-2-amine] |
| – | 55 | – | Cn1c(=O)c(-c2ccccc2Cl)cc2cnc(Nc3cccc(N4CCNCC4)c3)cc21 [UH15_25, 3-(2-chlorophenyl)-1-methyl-7-((3-(piperazin-1-yl)phenyl)amino)-1,6-naphthyridin-2(1H)-one] |
| 27.3 | 406 | > 100000 | Cn1c(=O)c(-c2ccccc2Cl)cc2cnc(Nc3cccc(S(C)(=O)=O)c3)cc21 [UH15_32, 3-(2-chlorophenyl)-1-methyl-7-((3-(methylsulfonyl)phenyl)amino)-1,6-naphthyridin-2(1H)-one] |
| 21.6 | 0.2 | 226 | Cn1c(=O)c(-c2ccccc2Cl)cc2cnc(Nc3cccc(N4CCNCC4)c3)nc21 [UH15_33, 6-(2-chlorophenyl)-8-methyl-2-((3-(piperazin-1-yl)phenyl)amino)pyrido[2,3-d]pyrimidin-7(8H)-one] |
| 35.2 | 34 | 1100 | Cn1c(=O)c(-c2ccccc2Cl)cc2cnc(Nc3cccnc3)nc21 [UH15_34, 6-(2-chlorophenyl)-8-methyl-2-(pyridin-3-ylamino)pyrido[2,3-d]pyrimidin-7(8H)-one] |
| 87.4 | 949 | – | Cn1c(=O)c(-c2ccccc2Cl)cc2cnc(Nc3ccccn3)nc21 [UH15_35, 6-(2-chlorophenyl)-8-methyl-2-(pyridin-2-ylamino)pyrido[2,3-d]pyrimidin-7(8H)-one] |
